Assay results reported in patent US5821231A, “CS-1 peptidomimetics, compositions and methods of using same” (Cytel Corporation, priority 1995, dated 1998).
Square brackets hold non-standard residues; d marks the D form. Peptide text beside a SMILES is read from it. * marks the point of attachment. PhAc = O=C(Cc1ccccc1)*

Test system: New Zealand white rabbits
Assay: Rabbit heterotopic cardiac allograft model
Format: in vivo
Source text: New Zealand white female rabbits (Charles River Lab., Saint Laurent, Quebec), between 3.5 and 4 kg underwent heterotopic cardiac transplant following an experimental protocol previously described [Alonso et al., Am. J. Pathol., 87:415-442 (1977); Clausell et al., Circulation, 89:2768-2779 (1994)]. The animals were unselected to favor an HLA-mismatch, the host rabbits were Pasteurella-free and the donors, outbred animals. Both host and donor rabbits were fed Purina 5321-0.5 percent cholesterol diet (Research Diets Inc., New Brunswick, N.J.), a strategy that has proven useful in accelerating the process of allograft arteriopathy [Alonso et al., Am, J. Pathol., 87:415-442 (1977)]. The diet was commenced four days prior to the transplant and continued in the recipient of the transplant until the completion of the experimental period.
The technique of heterotopic cardiac transplantation has been previously described [Clausell et al., Circulation, 89:2768-2779 (1994)]. Briefly, a vertical incision was performed in the anterior aspect of the neck of the recipient rabbit and the left common carotid artery and the ipsilateral external jugular vein were isolated. The cardiac allograft was placed in the neck by anastomosing the aorta end-to-side to the recipient's carotid artery and the pulmonary end-to-side to the recipient's external jugular vein, following a total period of ischemia for the donor hearts of approximately 30 minutes. Postoperative care was in compliance with the Principles of Laboratory Animal Care formulated by the Canadian National Society for Medical Research.
Beginning the day of the transplant, the animals were randomized and treated with either scrambled compound (control group) at 1 mg/kg s.c. or the inhibitor compound at 1 mg/kg s.c. The doses of the compounds were empirically extrapolated to the in vivo model based on preliminary in vitro studies, of Table 1. No other immunosuppression therapy was administered. The grafts were monitored daily by palpation and maintained for 7 to 8 days, a previously described endpoint that was associated with myocardial rejection (impaired cardiac contractility) and development of the allograft arteriopathy in this model [Clausell et al., Circulation, 89:2768-2779 (1994)]. A total of fourteen animals were studied in the control (n=7) and treated (n=7) groups.
The animals were sacrificed using a lethal dose of euthanol (480 mg i.v.) (MTC Pharmaceutical, Cambridge, ON), host and donor hearts were removed, and the coronary arteries were perfused with saline through the aorta, followed by light fixation by perfusion with 2 percent paraformaldehyde (Sigma, St, Louis, Mo.). […] Different sections of the hearts were either saved in 10 percent formalin (BDH Inc., Toronto, ON) for light microscopy studies or immediately frozen in O.T.C. Compound Tissue Tek (Miles Inc., Elkart, Ind.) for specific immunohistochemistry studies.
Three different paraffin-embedded tissue sections from host and donor hearts from both control and treated rabbits were stained by the Movat pentachrome method for light microscopy. Morphometric analysis was performed using a Zeiss microscope attached to a computer-generated video analysis system (Perceptics Inc., NuVision software), as described in Clausell et al., Circulation, 89:2768-2779 (1994). The number of vessels with intimal lesions were counted in all three heart sections from each animal studied and are expressed as a percentage of the total vessel number.
In the host hearts, 999 vessels in the control group and 1054 vessels in the treated group were analyzed. In the donor hearts, 827 vessels in the control group and 617 vessels in the treated group were analyzed. To determine the severity of intimal thickening, the diameter of each traceable vessel in all three sections was measured and the coronary arteries were categorized as small (diameter <100 μm), medium (diameter >100<500 μm) and large (diameter >500 μm). […]

For `CC(C)C[C@H](NC(=O)[C@H](CC(=O)O)NC(=O)Cc1ccccc1)C(=O)N[C@@H](Cc1ccccc1)C(=O)N1CCC[C@@H]1C(N)=O` [N-phenylacetyl-Asp-Leu-Phe-D-Pro-NH2, reference compound] (PhAc-DLF[dP]-NH2), the “Vessel Intimal Thickening: Percent of Vessels” value (donor heart, 1 mg/kg s.c.) was 88%, the “Vessel Intimal Thickening: Severity (Percent of Vessel area)” value (donor heart, 1 mg/kg s.c.) was 36% and the “Baseline of incidence of intimal thickening” value (rabbit own host heart) was 1%. The “Baseline of severity of intimal thickening” value (rabbit own host heart) was 12%.
